Experiment [1] addresses T1, Type-2 angiotensin II receptor (Rattus norvegicus, UniProt P35351).
T1 sequence (P35351 whole entry): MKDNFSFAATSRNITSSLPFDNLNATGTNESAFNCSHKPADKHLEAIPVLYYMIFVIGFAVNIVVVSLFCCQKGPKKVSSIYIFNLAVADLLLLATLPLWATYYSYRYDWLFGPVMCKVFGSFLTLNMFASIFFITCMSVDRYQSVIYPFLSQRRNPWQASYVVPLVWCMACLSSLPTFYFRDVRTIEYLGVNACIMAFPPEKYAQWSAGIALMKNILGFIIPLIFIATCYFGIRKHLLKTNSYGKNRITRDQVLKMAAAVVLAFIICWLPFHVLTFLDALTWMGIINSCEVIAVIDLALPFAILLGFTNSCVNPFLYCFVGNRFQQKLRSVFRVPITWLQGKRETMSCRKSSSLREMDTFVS
Kind of experiment: In vitro inhibitory activity against angiotensin II (AT2) receptor to displace 125I-Sar,Ile8-AII in rat midbrain.

The target of experiment [2] is T2, Type-1 angiotensin II receptor (Oryctolagus cuniculus, UniProt P34976).
T2 sequence (P34976 whole entry): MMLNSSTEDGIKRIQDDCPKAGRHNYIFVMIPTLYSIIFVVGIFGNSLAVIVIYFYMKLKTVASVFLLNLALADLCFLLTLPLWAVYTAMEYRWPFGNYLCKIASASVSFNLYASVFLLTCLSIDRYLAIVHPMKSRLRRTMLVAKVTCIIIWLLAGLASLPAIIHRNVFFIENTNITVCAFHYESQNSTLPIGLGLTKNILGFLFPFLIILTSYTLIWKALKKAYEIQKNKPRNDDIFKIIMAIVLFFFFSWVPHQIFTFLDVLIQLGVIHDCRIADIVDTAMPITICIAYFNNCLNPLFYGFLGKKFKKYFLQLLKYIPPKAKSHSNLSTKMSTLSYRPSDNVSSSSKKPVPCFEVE
As to the kind of experiment: In vitro inhibitory activity against Angiotensin II receptor, type 1 to displace 125I-Sar,Ile8-AII in rabbit aorta. In kind it is tissue-based.

These results are taken from ChEMBL document CHEMBL1127876, “Potent imidazole angiotensinII antagonists: acyl sulfonamides and acyl sulfamides as tetrazole replacements” (Bioorg Med Chem Lett, 1994).

pIC50: −log10 of the molar value.

Take `CCCc1nc(CC)c(C(=O)O)n1Cc1ccc(-c2ccccc2-c2nnn[nH]2)cc1`: the pIC50 – broadly, −log10 of the IC50, conventionally taken in molar units – was < 6.00 in experiment [1] and 8.22 in experiment [2].

Take `CCCc1nc(CC)c(C(=O)OC)n1Cc1ccc(-c2ccccc2S(=O)(=O)NC(=O)c2ccccc2)cc1`: the pIC50 in experiment [1] was 6.00; in experiment [2], 9.30.

With `CCCCc1ncc(C(=O)O)n1Cc1ccc(-c2ccccc2S(=O)(=O)NC(=O)c2ccccc2)cc1`, the values for the negative-log IC50 (pIC50) in experiment [1] and in experiment [2] were 5.35 and 8.21, respectively.

In the case of `CCCCc1ncc(C(=O)O)n1Cc1ccc(-c2ccccc2NS(=O)(=O)NC(=O)C2CC2)cc1`, the negative logarithm of the IC50 (pIC50) in experiment [1] is < 5.00; in experiment [2] it was 8.13.

As to `CCCc1nc(CC)c(C(=O)OC)n1Cc1ccc(-c2ccccc2S(=O)(=O)NC(=O)C2CC2)cc1`, the negative logarithm of the IC50 (pIC50) in experiment [1] is 5.68; in experiment [2], 8.59.

Consider `CCCCc1ncc(C(=O)OC)n1Cc1ccc(-c2ccccc2S(=O)(=O)NC(=O)c2ccccc2)cc1`, for which the values for the pIC50 in experiment [1] and in experiment [2] were < 6.00 and 7.68, respectively.

Take `CCCc1nc(CC)c(C(=O)O)n1Cc1ccc(-c2ccccc2S(=O)(=O)NC(=O)C2CC2)cc1`: the negative logarithm of the IC50 (pIC50) was < 5.00 in experiment [1] and 8.37 in experiment [2].

For `CCCCc1nc(Cl)c(C(=O)OC)n1Cc1ccc(-c2ccccc2-c2nn[nH]n2)cc1`, the pIC50 in experiment [1] was < 4.30; in experiment [2] it was 7.89.

As to `CCCc1nc(CC)c(C(=O)O)n1Cc1ccc(-c2ccccc2S(=O)(=O)NC(=O)c2ccccc2)cc1`, the results for the pIC50 in experiment [1] and in experiment [2] were 5.15 and 8.77, respectively.

For the molecule `CCCCc1nc(Cl)c(C(=O)O)n1Cc1ccc(-c2ccccc2S(=O)(=O)NC(=O)c2ccccc2)cc1`, the values for the pIC50 in experiment [1] and in experiment [2] were 5.02 and 8.70, respectively.

Regarding `CCCc1nc(CC)c(C=O)n1Cc1ccc(-c2ccccc2-c2nnn[nH]2)cc1`, the negative logarithm of the IC50 (pIC50) was < 4.52 in experiment [1] and 8.10 in experiment [2].

Turning to `CCCCCCCC(=O)NS(=O)(=O)Nc1ccccc1-c1ccc(Cn2c(C(=O)OC)cnc2CCCC)cc1`, the results for the pIC50 in experiment [1] and in experiment [2] were 6.30 and 8.72, respectively.

For `CCCCc1ncc(C(=O)OC)n1Cc1ccc(-c2ccccc2S(=O)(=O)NC(=O)C2CC2)cc1`, the values for the negative-log IC50 (pIC50) in experiment [1] and in experiment [2] were 5.10 and 7.41, respectively.

Turning to `CCCCc1ncc(C(=O)O)n1Cc1ccc(-c2ccccc2-c2nn[nH]n2)cc1`, the pIC50 was < 4.30 in experiment [1] and 8.54 in experiment [2].

For `CCCCc1ncc(C(=O)OC)n1Cc1ccc(-c2ccccc2NS(=O)(=O)NC(=O)c2ccccc2)cc1`, the pIC50 in experiment [1] was 5.74; in experiment [2], 7.70.

For the molecule `CCCCc1ncc(C(=O)O)n1Cc1ccc(-c2ccccc2S(=O)(=O)NC(=O)C2CC2)cc1`, the pIC50 is 5.24 in experiment [1] and 8.24 in experiment [2].

As for `CCCc1nc(CC)c(C=O)n1Cc1ccc(-c2ccccc2S(=O)(=O)NC(=O)C2CC2)cc1`, the results for the negative-log IC50 (pIC50) in experiment [1] and in experiment [2] were 5.70 and 7.92, respectively.

Take `CCCCCCCC(=O)NS(=O)(=O)Nc1ccccc1-c1ccc(Cn2c(C(=O)O)cnc2CCCC)cc1`: the negative logarithm of the IC50 (pIC50) was 5.64 in experiment [1] and 9.70 in experiment [2].

With `CCCCc1nc(Cl)c(C(=O)OC)n1Cc1ccc(-c2ccccc2S(=O)(=O)NC(=O)c2ccccc2)cc1`, the pIC50 in experiment [1] was 5.28; in experiment [2], 8.06.

As to `CCCCc1ncc(C(=O)OC)n1Cc1ccc(-c2ccccc2NS(=O)(=O)NC(=O)C2CC2)cc1`, the pIC50 in experiment [1] was 5.00; in experiment [2] it was 7.49.

Turning to `CCCCc1ncc(C(=O)OC)n1Cc1ccc(-c2ccccc2-c2nn[nH]n2)cc1`, the figures for the negative logarithm of the IC50 (pIC50) in experiment [1] and in experiment [2] were < 4.30 and 7.82, respectively.

For the molecule `CCCCc1ncc(C(=O)O)n1Cc1ccc(-c2ccccc2NS(=O)(=O)NC(=O)c2ccccc2)cc1`, the figures for the pIC50 in experiment [1] and in experiment [2] were < 5.00 and 8.22, respectively.

The molecule `CCCc1nc(CC)c(C=O)n1Cc1ccc(-c2ccccc2S(=O)(=O)NC(=O)c2ccccc2)cc1` had a negative-log IC50 (pIC50) in experiment [2] of 8.62.
